Results reported in US7754718B2 (priority 2004, dated 2010).
Like-named read-outs stand apart in the source and are kept apart here.

Key:
HSV-1 = assay: In vitro antiviral assay for HSV-1; format: cell-based, Herpes Simplex Virus 1
Protocol: (§1) The antiviral assays for HBV, (Doong et al., 1991, Proc. Natl. Acad. Sci. U.S.A. 88:8495-8499) HSV-1, (Bastow et al., 1983, Antimicrob. Agents Chemother. 23: 914-917) HSV-2, (Bastow et al., 1983, Antimicrob. Agents Chemother. 23:914-917) EBV, (Yao et al., 1993, Antimicrob. Agents Chemother. 37:1420-1425), CMV (Andreoni et al., 2002, J. Med. Virol. 67:33-40) and HIV (Mellors et al., 1992, Mol. Pharmacol. 41: 446-451) were performed according to the previously reported procedures. Anti-HCV activities were tested in Huh-Luc/neo cell line. Cells were seeded into 48-well plates and grown until confluent. Different concentrations of drugs were added into media (DMEM, 10% dFBS) and incubated for 3 days. At the end of 3-day treatment, medium were removed and 50 μl of Passive lysis buffer (Promega) were added. Cell lysate was shaken at room temperature for 15 min. 30 μl/well of cell lysate was transferred to another 96-well plate, 100 μl/well of luciferase activity assay substrate was added into plate and read by a luminometer (Amersham) immediately.

HSV-2 = assay: In vitro antiviral assay for HSV-2; format: cell-based, Herpes Simplex Virus 2
Protocol: as §1

[1] = Cell cytotoxicity assay on MT-2 cells; format: cell-based; details: human, read-out: Cytotoxity (ID50, μM) MT-2
Protocol: (§2) Cytotoxicities of test compounds on MT-2 (Mellors et al., 1992 Mol. Pharmacol. 41:446-451) and CEM (Grove et al., 1995, Cancer Res. 55:3008-3011) cells were determined according to the previously reported procedures. Hepg2 cells were seeded at a density of 10^4 cells/ml/well in 24-well plates and cultured in MEME supplemented with 10% FBS at 37° C. and 5% CO2. Each test compound at different concentrations was added on the second day of the culture and the cells were incubated for another 3 days. At the end of the incubation period, the medium was removed and 0.5 ml of 0.5% methylene blue in 50% ethanol (v/v) was added to each well and set at room temperature for 30-60 minutes. The methylene blue was removed; the plates were washed with water and allowed to air dry. Once dry, 1% sarcosyl was added to dissolve the stained cell layer. The absorbance at 595 nm was measured with a microplate reader (Molecular Devices Corp. Sunnyvale, Calif.). The cytotoxicity to CEM cell was calculated as described previously (Grove et al., 1995, Cancer Res. 55 (14): 3008-3011).

EBV = assay: In vitro antiviral assay for EBV; format: cell-based, Epstein-Barr Virus; details: human gammaherpesvirus 4, read-out: Antiviral Activities (EC50, μM) EBV
Protocol: as §1

[2] = Cell cytotoxicity assay on CEM cells; format: cell-based; details: human, read-out: Cytotoxity (ID50, μM) CEM
Protocol: as §2

HIV = assay: In vitro antiviral assay for HIV; format: cell-based, human immunodeficiency virus; details: Human immunodeficiency virus 1, read-out: Antiviral Activities (EC50, μM) HIV, in vitro; (T) after a value means toxic
Protocol: as §1

HBV = assay: In vitro antiviral assay for HBV (Table 1); format: cell-based, Hepatitis B virus; details: Hepatitis B virus, read-out: Antiviral Activities (EC50, μM) HBV
Protocol: as §1

HCV = assay: Anti-HCV activity in Huh-Luc/neo cell line, luciferase activity after 3-day treatment; format: cell-based, Hepatitis C virus; details: Hepatitis C virus, 72 h, Huh-Luc/neo cells, 3 days; for EC50: given as a bound only, read-out: Antiviral Activities (EC50, μM) HCV
Protocol: as §1

[3] = Human alphaherpesvirus 1, read-out: Antiviral Activities (EC50, μM) HSV-1
[4] = Human alphaherpesvirus 2, read-out: Antiviral Activities (EC50, μM) HSV-2
[5] = read-out: HCV percent of inhibition

Row | SMILES | EC50 (HSV-1; in vitro, read-out: Antiviral Activities (EC50, μM) HSV-1) | EC50 (HSV-2; in vitro, read-out: Antiviral Activities (EC50, μM) HSV-2) | IC50 [1] | EC50 (EBV) | EC50 (HSV-1; [3]) | IC50 [2] | EC50 (HIV) | EC50 (HBV) | EC50 (HSV-2; [4]) | inhibition at 10 µM (HCV; [5]) | EC50 (HCV) | inhibition at 3 µM (HCV; at 3 μM, read-out: HCV percent of inhibition) | inhibition at 1 µM (HCV; at 1 μM, read-out: HCV percent of inhibition)
1 | Nc1nc2c(ncn2COCCO)c(=O)[nH]1 [ACV, reference compound] | 8 µM | 21 µM |  |  |  |  |  |  |  |  |  |  | 
2 | O=C(OCc1ccccc1)c1cc2ccc3c(c2c(-c2ccc4c(c2)OCO4)c1COCc1ccccc1)OCO3 [Compound 4, 9-Benzo[1,3]dioxol-5-yl-8-benzyloxymethyl-naphtho[1,2-d][1,3]-dioxole-7-carboxylic acid benzyl ester] |  |  | > 100 µM | > 20 µM | > 50 µM | > 50 µM | > 100 µM | > 10 µM | > 50 µM | 71% |  |  | 
3 | O=C(OCCCOCc1ccccc1)c1cc2ccc3c(c2c(-c2ccc4c(c2)OCO4)c1COCc1ccccc1)OCO3 [Compound 6, 9-Benzo[1,3]dioxol-5-yl-8-benzyloxymethyl-naphtho[1,2-d][1,3]dioxole-7-carboxylic acid 3-benzyloxy-propyl ester] |  |  | > 100 µM | > 20 µM | > 50 µM | > 50 µM | > 100 µM | > 10 µM | > 50 µM | 55% |  |  | 
4 | Cc1c(C(=O)OCCCO)cc2ccc3c(c2c1-c1ccc2c(c1)OCO2)OCO3 [Compound 7, 9-Benzo[1,3]dioxol-5-yl-8-methyl-naphtho[1,2-d][1,3]dioxole-7-carboxylic acid 3-hydroxy-propyl ester] |  |  | 10 µM | > 15 µM | > 25 µM | 46 µM | > 10 µM | > 23 µM | > 25 µM |  | > 10 µM |  | 
5 | CNC(=O)c1cc2ccc3c(c2c(-c2ccc4c(c2)OCO4)c1C(=O)O)OCO3 [Compound 13, 9-Benzo[1,3]dioxol-5-yl-7-methylcarbamoyl-naphtho[1,2-d][1,3]dioxole-8-carboxylic acid] |  |  | 26 µM | > 20 µM | 12 µM | 29 µM | > 26 µM | > 20 µM | > 25 µM |  | > 10 µM |  | 
6 | CN(C)C(=O)c1cc2ccc3c(c2c(-c2ccc4c(c2)OCO4)c1C(=O)O)OCO3 [Compound 14, 9-Benzo[1,3]dioxol-5-yl-7-dimethylcarbamoyl-naphtho[1,2-d][1,3]dioxole-8-carboxylic acid] |  |  | 70 µM | > 20 µM | > 50 µM | 76 µM | > 70 µM | > 10 µM | > 50 µM |  | > 10 µM |  | 
7 | COc1ccc(-c2c(C(=O)O)c(C(N)=O)cc3ccc4c(c23)OCO4)cc1OC [Compound 15, 7-Carbamoyl-9-(3,4-dimethoxy-phenyl)-naphtho[1,2-d][1,3]dioxole-8-carboxylic acid] |  |  | 10 µM | > 20 µM | 0.8 µM | 3 µM | > 10 µM | 0.8 µM | > 3 µM |  |  | 64% | 
8 | O=C1NCc2c1cc1ccc3c(c1c2-c1ccc2c(c1)OCO2)OCO3 [Compound 18, 10-Benzo[1,3]dioxol-5-yl-8,9-dihydro-1,3-dioxa-8-aza-dicyclopenta[a,g]naphthalen-7-one] |  |  | 4 µM | 11 µM | 0.29 µM | 4.5 µM | > 4 µM | 0.08 µM | 0.16 µM |  |  |  | 55%
9 | O=c1[nH][nH]c(=O)c2c(-c3ccc4c(c3)OCO4)c3c4c(ccc3cc12)OCO4 [Compound 28, 11-Benzo[1,3]dioxol-5-yl-8,9-dihydro-1,3-dioxa-8,9-diaza-cyclopenta[a]anthracene-7,10-dione] |  |  | 16 µM | > 25 µM | 1.4 µM | 50 µM |  | 0.03 µM | 1.4 µM | 74% |  |  | 
10 | Nc1ccn([C@H]2CC[C@@H](CO)O2)c(=O)n1 [ddC, 2′,3′-Dideoxycytidine, reference compound] |  |  | 70 µM |  |  | 5 µM | 0.8 µM |  |  |  |  |  | 
